Measured values published in paper PMC9283524 (Nature Communications, 2022).
Where “and” joins values, the source holds several entries; their conditions need not be identical. Equal entries are not always repeated. Where two headings read alike, the source gives them in different places.

What was measured:
[1] = system: ligand-bound nucleotide-free β1-AR–Gs complex; format: biochemical, turkey; conditions: ligand at ~EC90; 10 μM BODIPY FL GTPγS; 25 °C; mean ± SD
Text: To investigate whether ligands with different efficacies have different effects on the stability of the intermediate state, we prepared the complex of ligand-bound β1-AR-Gs (nucleotide-free), and quantified the stability of the intermediate state complex (Fig. 7a). Fluorescently labeled BODIPY-GTPγS binding to the ligand-bound β1-AR–Gs (nucleotide-free) complex eventually leads to the dissociation of the complex to produce the fluorescently labeled product Gαs(BODIPY-GTPγS), which is detected by an increase in fluorescence (the β1-AR–Gαs(BODIPY-GTPγS)–Gβγ intermediate is very transient)[31],[35] […] The data were then fitted by nonlinear association analyses and half-life values (t1/2 = ln 2/k) were calculated based on the rate constant (Fig. 7b–e).
The reaction was initiated by adding 10 μM BODIPY™ FL GTPγS (Invitrogen). Relative fluorescence units (RFU) change was measured every 12 s for a total of 60 min at 25 °C. The BODIPY-GTPγS binding data were fitted to one phase exponential association curves using GraphPad Prism 8.

turkey β1-AR T291^6.36A = turkey β1-AR T291^6.36A (Meleagris gallopavo, UniProt P07700, T291A); format: cell-based; conditions: for cAMP level: Fig 5c,e source data, T291A
Procedure: (§1) CHO cells (transfected with a control empty vector or wild-type or mutant turkey β1-AR) were plated onto six-well plates, and were pre-incubated with culture medium buffered with 0.5 mM IBMX for 30 min at 37 °C[20]. […] After culture medium removal, cells were treated with 0.1 M HCl for 10 minutes at room temperature. After centrifugation, the supernatant was used for cAMP quantification using the Direct Cyclic AMP Enzyme Immunoassay kit (Enzo Life Sciences). […] The cAMP assays were repeated three times, and the data are represented as mean ± SD of the three independent experiments. The analysis was done using the log(agonist) vs. response function of Prism 8 (GraphPad)[20].

turkey β1-AR Q150^ICL2A = turkey β1-AR Q150^ICL2A (Meleagris gallopavo, UniProt P07700, Q150A); format: cell-based; conditions: for cAMP level: Fig 5c,e source data, Q150A
Procedure: as §1

[2] = CHO, 5 min, read-out: Efficacy (% of max cAMP level)

Chain of turkey β1-AR Q150^ICL2A (P07700 whole entry Q150A): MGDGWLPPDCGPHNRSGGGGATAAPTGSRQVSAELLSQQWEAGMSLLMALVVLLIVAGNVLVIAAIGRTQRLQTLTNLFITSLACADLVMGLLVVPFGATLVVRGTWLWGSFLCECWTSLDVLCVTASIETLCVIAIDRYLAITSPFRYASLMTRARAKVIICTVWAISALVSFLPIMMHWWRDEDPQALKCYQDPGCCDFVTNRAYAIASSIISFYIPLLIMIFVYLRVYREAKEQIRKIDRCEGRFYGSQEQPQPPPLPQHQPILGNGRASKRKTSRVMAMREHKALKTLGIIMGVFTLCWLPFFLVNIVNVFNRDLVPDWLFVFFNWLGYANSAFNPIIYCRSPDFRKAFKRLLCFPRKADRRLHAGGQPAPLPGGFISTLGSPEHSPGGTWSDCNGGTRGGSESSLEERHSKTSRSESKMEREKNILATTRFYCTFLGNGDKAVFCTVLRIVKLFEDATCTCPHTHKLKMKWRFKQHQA
Chain of turkey β1-AR T291^6.36A (P07700 whole entry T291A): as the sequence (P07700 whole entry Q150A) above, with A150Q, T291A counted along it

In the case of `CC(CCc1ccc(O)cc1)NCCc1ccc(O)c(O)c1` (stereo not shown) [Dobutamine, dobutamine], the Complex half-life [1] is reported as 6.9 ± 0.6 min, the EC50 (turkey β1-AR T291^6.36A) is reported as 6.61 µM and the Emax (turkey β1-AR T291^6.36A; [2]) is reported as 21 ± 1.7%. The cAMP level (turkey β1-AR T291^6.36A; log[ligand] (M) -3) was 106 and 116 and 114, the cAMP level (turkey β1-AR T291^6.36A; log[ligand] (M) -4) was 100 and 115 and 113 and the cAMP level (turkey β1-AR T291^6.36A; log[ligand] (M) -5) was 82 and 86 and 83. For the same compound, the cAMP level (turkey β1-AR T291^6.36A; log[ligand] (M) -6) was 40 and 42 and 41, the cAMP level (turkey β1-AR T291^6.36A; log[ligand] (M) -7) was 38 and 39 and the cAMP level (turkey β1-AR T291^6.36A; log[ligand] (M) -8) was 34 and 39. For the same compound, the cAMP level (turkey β1-AR T291^6.36A; log[ligand] (M) -9) was 34 and 36 and 38, the EC50 (turkey β1-AR Q150^ICL2A) was 3.39 µM and the Emax (turkey β1-AR Q150^ICL2A; [2]) was 44 ± 3.5%. For the same compound, the cAMP level (turkey β1-AR Q150^ICL2A; log[ligand] (M) -3) was 192 and 204 and 207, the cAMP level (turkey β1-AR Q150^ICL2A; log[ligand] (M) -4) was 178 and 195 and 219 and the cAMP level (turkey β1-AR Q150^ICL2A; log[ligand] (M) -5) was 151 and 169 and 177. The cAMP level (turkey β1-AR Q150^ICL2A; log[ligand] (M) -6) was 58 and 69 and 73, the cAMP level (turkey β1-AR Q150^ICL2A; log[ligand] (M) -7) was 36 and 42 and 43 and the cAMP level (turkey β1-AR Q150^ICL2A; log[ligand] (M) -8) was 36 and 40. For the same compound, the cAMP level (turkey β1-AR Q150^ICL2A; log[ligand] (M) -9) was 35 and 37 and 41.
